Entries after “also recorded” stand apart in the source; their conditions may differ.

From patent US20100316673A1, “NA[…]” (priority 2009, published 2010) come the findings set out here.

The test relates to virus. As to the kind of experiment: Virus inactivation by detergent component versus nanoemulsion. The format is cell-based. The conditions noted are these: at concentrations equivalent to 11% X8P (BCTP). The source says:
The nanoemulsions structure of the certain embodiments of the emulsions of the present invention may play a role in their biocidal activity as well as contributing to the non-toxicity of these emulsions. […] Adding the oil phase to the detergent and solvent markedly reduces the toxicity of these agents in tissue culture at the same concentrations. […] It should be noted that when all the components of X8P are combined in one composition but are not in a nanoemulsion structure, the mixture is not as effective as an antimicrobial as when the components are in a nanoemulsion structure.
Individual components of nanoemulsions (e.g. in an immunogenic composition of the present invention) can function both to inactivate a pathogen as well as to contribute to the non-toxicity of the emulsions. […] Adding the oil phase to the detergent and solvent markedly reduces the toxicity of these agents in tissue culture at the same concentrations. […] Furthermore, when all the components of BCTP are combined in one composition but are not in a nanoemulsion structure, the mixture is not as effective at inactivating a pathogen as when the components are in a nanoemulsion structure.

Take TRITON X-100 [TRITON-X100]: the “biocidal activity against virus (ability to inactivate a virus)” value was “less biocidal activity; also recorded: less ability to inactivate a virus”.
